Test results as given in patent US20120264928A1, “THERAPEUTIC PHARMACEUTICAL AGENT FOR DISEASES ASSOCIATED WITH DECREASE IN FUNCTION OF GNE PROTEIN, FOOD COMPOSITION, AND FOOD ADDITIVE” (JAPAN HEALTH SCIENCES FOUNDATION, priority 2009, published 2012).

How the values were obtained:
[1] = test system: DMRV model mice; assay: Survival rate of treated DMRV model mice; assay type: in vivo; conditions: vs placebo group
Experimental: DMRV model mice were GNE^(−/−)hGNED176V-Tg described in Japanese Unexamined Patent Application Publication No. 2007-312641. Healthy litters having no GNE gene mutation were used as controls. The mice in the present example freely take water and feed and ingest 14 mg/kg body weight/day of N-acetylneuraminic acid compound on average.
(§1) 20 mg/kg body weight/day of ManNAc (N=6), NeuAc (N=5), or sialyllactose (N=7) dissolved in drinking water was administered to the DMRV model mice between 11- to 15-week old and 56- to 58-week old for 43 to 45 weeks. 40 mg (N=5) or 400 mg/kg body weight/day (N=4) of Ac4ManNAc dissolved in drinking water was administered to the DMRV model mice of the same ages for 43 to 47 weeks. Drinking water free of the pharmaceutical agents was supplied to mice in a placebo group.
(§2) During the administration of the pharmaceutical agent, the measurement of the body weight, the determination of the survival rate, blood collection (0, 25, and 49 days after the start of administration, and thereafter at intervals of 28 days), and a hanging test (0 and 49 days after the start of administration, and thereafter at intervals of 56 days) were performed at regular intervals. Survivors after the administration (ManNAc-treated group: N=5, NeuAc-treated group: N=5, sialyllactose group: N=6) were subjected to a treadmill test. A muscle tissue was then excised and was subjected to a muscle contraction test, the measurement of the amount of NeuAc, and pathological observation.

[2] = test system: primary cultured cells of myotubes derived from the DMRV human patients; assay: Amount of NeuAc by HPLC in myotubes from DMRV human patients; assay type: cell-based; conditions: three days, N=3
Source text: DMRV human patients are adult patients that have been diagnosed with DMRV by means of GNE gene mutation screening. (Number of patients: 42, the age of the onset of the disease: 20 to 30, sex: male and female) In accordance with a protocol approved by National Center of Neurology and Psychiatry, after obtaining informed consent, skeletal muscles (biceps brachii muscles and anterior tibial muscles) were collected from these patient volunteers under local anesthesia by means of biopsy.
The skeletal muscle tissues collected from the DMRV human patients or the model mice were lightly washed with PBS or Hank's balanced saline and were treated with 0.25% trypsin for 5 minutes. The tissues were finely cut into several millimeters with ophthalmic scissors, were digested with 0.4% collagenase II/0.25% trypsin at 37° C. for 30 minutes, and were left still to collect supernatant. The precipitate was again treated with the enzyme liquid. After being left still, the precipitate was well suspended in a DMEM-Ham's F-12 culture medium. The tissue suspension was passed through a nylon mesh to remove the tissues. The washings and the supernatant were centrifuged to collect cells. The cells thus collected were plated on a DMEM-Ham's F-12 culture medium at a cell density of 10^6 in a 100-mm plastic dish and were cultured at 37° C. in 5% CO2 for 4 to 7 days.
In the case that the sample was cultured cells, the cells were washed with PBS three times, and 400 p. 1 of 50 mM sulfuric acid was added to the cells. The cells were incubated at 80° C. for 60 minutes and were hydrolyzed to release NeuAc and NeuGc. In the case that the sample was a piece of tissue, the tissue was frozen, was pulverized with an air hammer, and was homogenized in a KCl-tris solution. […] The fluorescent derivative thus prepared was analyzed with HPLC (JASCO Corp.) using 0.05 to 5 nmol/μl Neu5Ac and Neu5Gc standards. The amount of protein from the tissue was measured with a Bio-Rad Protein Assay kit (Bio-Rad Laboratories).
[…] The amount of NeuAc in the cultured cells was measured by the HPLC method described above (N=3).

[3] = test system: DMRV model mice; assay: Pathological observation of muscle tissue; assay type: in vivo
Experimental: as §1, §2
The gastrocnemius muscle used in the muscle contraction test was frozen in isopentane cooled by liquid nitrogen, and a frozen section having a thickness of 6 μm was prepared with a cryostat. The section was placed on a slide glass. Hematoxylin-eosin (H-E) staining, acid phosphatase activity staining (see Malicdan et al., Method. Enzymol., 453, 379-396, 2009), or Gomori trichrome staining (see Malicdan et al., Method. Enzymol., 453, 379-396, 2009) were performed on adjacent sections. These sections were observed under an optical microscope. A frozen section having a thickness of 10 μm prepared in the same manner as described above was fixed with 4% paraformaldehyde, was stained with congo red, and was observed under a fluorescence microscope.
A frozen section having a thickness of 6 μm prepared in the same manner as described above was fixed with acetone and was blocked with a blocking solution (PBS containing 5% goat normal sera or 2% casein). The section was incubated with an anti-autophagy marker protein LC3 rabbit polyclonal antibody (NB100-2220, Novus Biologicals, 100 times dilution), an anti-β-amyloid rabbit polyclonal antibody (Aβ1-40, AB5074P, Chemicon, 100 times dilution), an anti-β-amyloid rabbit polyclonal antibody (Aβ1-42, AB5078P, Chemicon, 100 times dilution), an anti-phosphorylated tau mouse monoclonal antibody (90206, Innogenetics, 100 times dilution), an anti-amyloid mouse monoclonal antibody (6E10, Covance, 400 times dilution), an anti-p62 protein rabbit polyclonal antibody (PW9860, Biomol, 500 times dilution), or an anti-lysosome-associated membrane protein 2 (Lamp 2) rabbit polyclonal antibody (ABL-93, obtained from Developmental Studies Hybridoma Bank at the University of Iowa, 100 times dilution) at room temperature for one hour. If necessary, Alexa Fluor 488 or 568 labeled anti-rabbit/mouse IgG(H+L) (Molecular Probes) was used as a secondary antibody. Immunostained preparations of these sections were observed under a fluorescence microscope. The congo red staining and the LC3 labeling were performed on adjacent sections.
It is known that rimmed vacuoles found in muscle tissues of a patient suffering from myopathy are positive for acid phosphatase. […] Tau protein is phosphorylated with amyloid β-protein. In myopathy caused by a mutation of the GNE gene, it is known that lysosomal vesicles that contain localized Lamp 2 protein are accumulated. It is also known that p62 protein recognizes polyubiquitin protein and directly binds to LC3 to induce autophagy in a portion that contains accumulated polyubiquitinated protein. In a muscle tissue affected by myopathy, p62 protein is colocalized with amyloid.

[4] = 20 mg/kg body weight/day in drinking water, 43 to 45 weeks
[5] = final concentration 0.005, 0.05, 0.5 or 5 mM
[6] = 20 mg/kg body weight/day in drinking water
[7] = 20 mg/kg body weight/day in drinking water, vs placebo group

| Structure (SMILES) | survival rate [1, 4] | amount of NeuAc in the cells [2, 5] | acid phosphatase activity staining [3, 6] | congo red staining (amyloid) [3, 6] | labeling with the anti-phosphorylated tau antibody [3, 6] | rimmed vacuoles and muscle cell atrophy (H-E staining) [3, 6] | labeling with the anti-amyloid antibodies (LC3, Aβ1-40, and Aβ1-42) [3, 7] | survival rate ([1]; 40 or 400 mg/kg body weight/day in drinking water, 43 to 47 weeks) | amount of NeuAc in the cells ([2]; final concentration 0.0002, 0.002, 0.02 or 0.2 mM) | Aβ1-42 labeling ([3]; 40 mg/kg) | Lamp 2 staining ([3]; 40 mg/kg) | acid phosphatase activity staining ([3]; 40 mg/kg) | p62 protein labeling ([3]; 40 mg/kg) | frequencies of rimmed vacuoles and muscular atrophy ([3]; 40 mg/kg, vs placebo group) | Aβ1-42 labeling ([3]; 400 mg/kg) | Lamp 2 staining ([3]; 400 mg/kg) | acid phosphatase activity staining ([3]; 400 mg/kg) | p62 protein labeling ([3]; 400 mg/kg) | rimmed vacuoles and muscle cell atrophy ([3]; 400 mg/kg) |
| --- | --- | --- | --- | --- | --- | --- | --- | --- | --- | --- | --- | --- | --- | --- | --- | --- | --- | --- | --- |
| CC(=O)N[C@@H]1C(O)O[C@H](CO)[C@@H](O)[C@@H]1O (some centres unmarked) [ManNAc, N-acetylmannosamine, reference compound] | significantly higher | effective in increasing the amount of NeuAc in the cells in a manner that depended on their doses | negative | only the placebo group was fluorescently labeled | Only the placebo group was also labeled | no rimmed vacuole or muscle cell atrophy | markedly reduced |  |  |  |  |  |  |  |  |  |  |  |  |
| CC(=O)N[C@H]1[C@H]([C@H](O)[C@H](O)CO)OC(O)(C(=O)O)C[C@@H]1O (some centres unmarked) [NeuAc, N-acetylneuraminic acid] | significantly higher | effective in increasing the amount of NeuAc in the cells in a manner that depended on their doses | negative | only the placebo group was fluorescently labeled | Only the placebo group was also labeled | no rimmed vacuole or muscle cell atrophy | markedly reduced |  |  |  |  |  |  |  |  |  |  |  |  |
| CC(=O)N[C@H]1[C@H]([C@H](O)[C@H](O)CO)O[C@@](O[C@H]2[C@@H](O)[C@@H](CO)O[C@@H](O[C@H]3[C@H](O)[C@@H](O)C(O)O[C@@H]3CO)[C@@H]2O)(C(=O)O)C[C@@H]1O (some centres unmarked) [sialyllactose, NeuAcα2-3Galβ1-4Glc] | significantly higher |  | negative | only the placebo group was fluorescently labeled | Only the placebo group was also labeled | no rimmed vacuole or muscle cell atrophy | markedly reduced |  |  |  |  |  |  |  |  |  |  |  |  |
| CC(=O)N[C@@H]1C(OC(C)=O)O[C@H](COC(C)=O)[C@@H](OC(C)=O)[C@@H]1OC(C)=O (some centres unmarked) [Ac4ManNAc, Tetra-O-acetyl-N-acetylmannosamine] |  |  |  |  |  |  |  | higher | effective in increasing the amount of NeuAc at low concentrations in a manner that depended on its dose | negative | very slightly stained | dispersed sites that were positive | negative | much lower | negative | negative | negative | negative | no rimmed vacuole or muscle cell atrophy |
